The target of data set [1] is T1, hMAO-B (Homo sapiens, UniProt P27338).
T1 sequence (P27338 1-520): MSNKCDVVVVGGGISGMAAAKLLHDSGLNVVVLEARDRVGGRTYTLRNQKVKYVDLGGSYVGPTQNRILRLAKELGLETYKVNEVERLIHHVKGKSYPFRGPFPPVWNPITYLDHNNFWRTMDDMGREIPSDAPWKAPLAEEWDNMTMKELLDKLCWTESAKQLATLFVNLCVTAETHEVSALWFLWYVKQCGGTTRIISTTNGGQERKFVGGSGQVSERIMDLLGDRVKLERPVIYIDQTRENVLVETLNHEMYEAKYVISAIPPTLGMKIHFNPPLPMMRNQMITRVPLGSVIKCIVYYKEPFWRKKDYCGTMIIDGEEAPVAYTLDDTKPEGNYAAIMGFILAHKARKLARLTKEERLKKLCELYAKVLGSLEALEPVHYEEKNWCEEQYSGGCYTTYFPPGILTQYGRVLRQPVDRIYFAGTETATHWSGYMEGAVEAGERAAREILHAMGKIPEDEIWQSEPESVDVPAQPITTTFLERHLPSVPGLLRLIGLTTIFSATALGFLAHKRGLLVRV
As to the kind of experiment: Enzyme kinetic study (Lineweaver–Burk plots). The data set is classed as biochemical. Conditions: benzylamine 1, 2, 4 and 8 mM. The protocol:
To evaluate the mode of MAO-B inhibition, the representative compound was evaluated in substrate-dependent kinetic experiments performed as previously described. Sets of Lineweaver–Burk plots were generated. The reciprocal MAO-B activity was plotted against the reciprocal substrate concentration. […] The enzymatic reactions and measurements were performed using human MAO-B assay conditions as described above for the determination of IC50 values.

The test system of data set [2] is BV2 microglia cells. The data set can be described thus: MTT assay, cytotoxicity. The data set is classed as cell-based. Conditions: 5 and 25 µM for 24 h. As for the experimental part:
The 3–(4, 5-dimethylthiazol-2-yl)-2,5-diphenyltetrazolium (MTT) assay was performed as previously described. BV2 Cells were plated at 5000 cells per well and allowed to grow at 37 °C overnight. Then the cells were treated with various concentrations of the tested compounds for 24 h at 37 °C in a humidified atmosphere with 5% CO2, 0.5% DMSO acted as the vehicle control. The cell culture medium was then removed, followed by the addition of fresh cell culture medium containing 5.0 g/L MTT (20 µL/per well) and incubation at 37 °C in a humidified, 5% CO2 atmosphere for 4 h. After this incubation period, the cell culture medium was removed and the formed formazan crystals dissolved in 100% DMSO. The absorbance was measured at 570 nm in a multi-well plate reader. The results are expressed as % relative cell viability compared to DMSO vehicle control.
A general note: Formazan colour is commonly taken as a measure of viable cells.

Data set [3] has as its target T1, hMAO-B. As to the kind of experiment: Reversibility study: time-dependent inhibition of hMAO-B. Conditions: for IC80: compounds used at the concentration of their IC80; for time after which the residual activity of hMAO-B began to increase: inhibitor at IC80; for reversibility of hMAO-B inhibition: inhibitor at IC80, activity followed for 120 min. The data set is classed as biochemical. The protocol:
Control experiments without inhibitors were run simultaneously. The enzymatic activity was determined as described above. The percentage of enzyme activity was plotted against the incubation time to determine time-dependent enzyme inhibition.

Data set [4] concerns the target T1, hMAO-B. As to the kind of experiment: hMAO inhibition assay (Amplex Red fluorescence), hMAO-B, benzylamine substrate. Conditions: for Selectivity Index (SI): SI = IC50 (hMAO-A)/IC50 (hMAO-B); for fold higher inhibitory potency than 4: from IC50, versus compound 4; for inhibition at 1 µM: tested concentration 1 µM. The data set is classed as biochemical. As for the experimental part: The hMAO inhibition assay was performed as previously described. […] The test compounds were dissolved in DMSO as stock solutions (10 mM) and diluted with sodium phosphate buffer (50 mM, pH 7.4) to the corresponding concentrations. […] The specific fluorescence emission was calculated after subtraction of the background activity. The background activity was determined from wells containing all components except the hMAO isoforms, which were replaced by a sodium phosphate buffer solution. The percentage inhibition was calculated by the following expression: (1 – IFi/IFc) × 100, in which IFi and IFc are the fluorescence intensities obtained for hMAO in the presence and absence of inhibitors after subtracting the respective background.

Data set [5] concerns the target T2, hMAO-A (Homo sapiens, UniProt P21397).
T2 sequence (P21397 1-527): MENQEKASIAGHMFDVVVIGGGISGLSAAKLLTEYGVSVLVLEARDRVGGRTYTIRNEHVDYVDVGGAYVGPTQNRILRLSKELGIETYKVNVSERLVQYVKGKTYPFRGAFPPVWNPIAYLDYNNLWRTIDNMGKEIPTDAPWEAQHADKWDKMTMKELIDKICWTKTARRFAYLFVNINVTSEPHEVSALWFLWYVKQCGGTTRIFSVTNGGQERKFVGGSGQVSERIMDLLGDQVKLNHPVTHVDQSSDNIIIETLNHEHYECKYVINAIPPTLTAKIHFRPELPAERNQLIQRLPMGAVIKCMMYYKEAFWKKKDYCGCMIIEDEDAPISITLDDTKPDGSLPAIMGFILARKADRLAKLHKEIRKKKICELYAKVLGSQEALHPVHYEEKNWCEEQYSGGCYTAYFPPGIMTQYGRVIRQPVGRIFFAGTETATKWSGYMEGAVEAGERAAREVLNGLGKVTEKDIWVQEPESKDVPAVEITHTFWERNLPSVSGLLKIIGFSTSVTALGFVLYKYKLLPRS
As to the kind of experiment: hMAO inhibition assay (Amplex Red fluorescence), hMAO-A, p-tyramine substrate. The data set is classed as biochemical. Conditions: recombinant hMAO-A. As for the experimental part: The hMAO inhibition assay was performed as previously described. Adequate amounts of recombinant hMAO-A/B were acquired and adjusted to 12.5 µg/mL or 75 µg/mL for hMAO-A or hMAO-B, respectively, with sodium phosphate buffer (50 mM, pH 7.4). The test compounds were dissolved in DMSO as stock solutions (10 mM) and diluted with sodium phosphate buffer (50 mM, pH 7.4) to the corresponding concentrations. Then the test compounds (20 µL) and hMAO (80 µL) were incubated for 15 min at 37 °C in a flat, black-bottomed 96-well microtest plate in the dark. The reaction was initiated by adding Amplex Red reagent (200 µM, final concentration), horseradish peroxidase (2 U/mL, final concentration), and 2 mM p-tyramine for hMAO-A or 2 mM benzylamine (final concetration) for hMAO-B and incubated at 37 °C for 20 min. Activity was quantified in a multi detection microplate fluorescence reader (SpectraMax M5, Molecular Devices, USA) based on the fluorescence generated (excitation, 545 nm; emission, 590 nm). The specific fluorescence emission was calculated after subtraction of the background activity. The background activity was determined from wells containing all components except the hMAO isoforms, which were replaced by a sodium phosphate buffer solution. The percentage inhibition was calculated by the following expression: (1 – IFi/IFc) × 100, in which IFi and IFc are the fluorescence intensities obtained for hMAO in the presence and absence of inhibitors after subtracting the respective background. […]

[6] abbreviates: recombinant hMAO-B, read-out: hMAO-B IC50.

We go through three compounds from paper PMC7470127, “Design, synthesis, and evaluation of 1, 4-benzodioxan-substituted chalcones as selective and reversible inhibitors of human monoamine oxidase B” (Journal of Enzyme Inhibition and Medicinal Chemistry, 2020).

Like-named read-outs stand apart in the source and are kept apart here.

For `O=C(/C=C/c1ccc2c(c1)OCCO2)c1cccc(Cl)c1` [Compound 17, (E)-1-(3-chlorophenyl)-3-(2,3-dihydrobenzo[b][1,4]dioxin-6-yl)prop-2-en-1-one], the melting point was 125.5 to 127 °C. Also, the “mode of hMAO-B inhibition” value in data set [1] was “competitive”. The “Cell viability of BV2 cells” value in data set [2] was “no considerable decrease in cellular viability”. In data set [3], it took 280 nM to reach the 80% level (IC80), the “time after which the residual activity of hMAO-B began to increase” value stood at 20 min and the “reversibility of hMAO-B inhibition” value is given as “reversible”. In addition, in data set [4], the “Selectivity Index (SI)” value is recorded as greater than 702, the “fold higher inhibitory potency than 4” value is 1.7–4 fold and at 1 µM the inhibition was 93.4%. Further, in data set [4] (setting [6]), the IC50 is 57 ± 4 nM. Besides, the IC50 in data set [5] is greater than 40000 nM.
For `O=C(/C=C/c1ccc2c(c1)OCCO2)c1ccc(F)c(Br)c1` [Compound 22, (E)-1-(3-bromo-4-fluorophenyl)-3-(2,3-dihydrobenzo[b][1,4]dioxin-6-yl)prop-2-en-1-one], the “mode of hMAO-B inhibition” value in data set [1] is “competitive”. The “Cell viability of BV2 cells” value in data set [2] is given as “no considerable decrease in cellular viability”. Besides, in data set [3], the IC80 was 190 nM, the “time after which the residual activity of hMAO-B began to increase” value was 20 min and the “reversibility of hMAO-B inhibition” value is recorded as “reversible”. In data set [4], this compound returned an IC50 of 26 ± 1 nM and an inhibition at 1 µM of 95.6%. Further, in data set [5], the IC50 was greater than 40000 nM.
On to `O=C(/C=C/c1ccc2c(c1)OCCO2)c1cccc(Br)c1` [Compound 16, (E)-1-(3-bromophenyl)-3-(2,3-dihydrobenzo[b][1,4]dioxin-6-yl)prop-2-en-1-one], for which the melting point lay in the range of 119.3 to 120.4 °C. Besides, the “mode of hMAO-B inhibition” value in data set [1] is “competitive”. Moreover, in data set [2], the “Cell viability of BV2 cells” value is “no considerable decrease in cellular viability”. For the same compound, in data set [3], the IC80 amounted to 280 nM, the “time after which the residual activity of hMAO-B began to increase” value came to 20 min and the “reversibility of hMAO-B inhibition” value is listed as “reversible”. Moreover, in data set [4], the “Selectivity Index (SI)” value is greater than 727, the “fold higher inhibitory potency than 4” value is recorded as 1.7–4 fold and testing at 1 µM gave an inhibition of 93.3%. For the same compound, the IC50 in data set [4] (setting [6]) was found to be 55 ± 2 nM. The IC50 in data set [5] is greater than 40000 nM.

For orientation: IC80 means the concentration needed for an effect of 80%. A word on the IC50: it is the concentration that inhibits the measured activity by half. For orientation: inhibition means how much of the control response was suppressed. A lower inhibition goes with a response near the control. As usually defined, the melting point is the temperature, or range, at which the solid turns liquid.
